Measured values published in ChEMBL document CHEMBL4482311, “Modulators of Prostate-Specific G-Protein Receptor (PSGR/OR51E2) and Methods of Using Same” (2018).
The source made the active and inactive calls. The rule behind the calls is not given here.

Legend:
[1] = biological target: T1, Olfactory receptor 51E2 (Homo sapiens) (UniProt Q9H255); test: Agonist activity at PSGR/OR51E2 in human LNCaP cells assessed as induction of neuroendocrine trans-differentiation related gene expression by measuring increase in OR51E2 mRNA expression incubated for 12 days by RT-PCR analysis; assay type: cell-based
T1 sequence (whole entry): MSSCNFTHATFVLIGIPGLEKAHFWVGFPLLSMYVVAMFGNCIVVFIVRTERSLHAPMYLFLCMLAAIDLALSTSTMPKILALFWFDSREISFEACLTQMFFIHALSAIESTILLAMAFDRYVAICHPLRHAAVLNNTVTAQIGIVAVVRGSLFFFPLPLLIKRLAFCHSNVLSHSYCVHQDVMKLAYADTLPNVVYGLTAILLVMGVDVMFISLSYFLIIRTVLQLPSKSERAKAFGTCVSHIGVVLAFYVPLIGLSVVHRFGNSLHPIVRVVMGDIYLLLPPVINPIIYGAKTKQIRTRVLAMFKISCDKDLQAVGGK

[2] = biological target: T1, Olfactory receptor 51E2 (Homo sapiens); test: Agonist activity at PSGR/OR51E2 in human LNCaP cells assessed as induction of neuroendocrine trans-differentiation related gene expression by measuring increase in NSE mRNA expression incubated for 12 days by RT-PCR analysis; assay type: cell-based
[3] = biological target: T1, Olfactory receptor 51E2 (Homo sapiens); test: Agonist activity at PSGR/OR51E2 in human LNCaP cells assessed as induction of neuroendocrine trans-differentiation related gene expression by measuring increase in AMACR mRNA expression incubated for 12 days by RT-PCR analysis; assay type: cell-based
[4] = biological target: T1, Olfactory receptor 51E2 (Homo sapiens); test: Agonist activity at PSGR/OR51E2 in human LNCaP cells assessed as induction of change in extracellular metabolites level by measuring asparagine level at 100 nM incubated for 72 hrs by GC/MS analysis; assay type: cell-based
[5] = biological target: T1, Olfactory receptor 51E2 (Homo sapiens); test: Agonist activity at PSGR/OR51E2 in human LNCaP cells assessed as induction of change in extracellular metabolites level by measuring glutaric acid level at 100 nM incubated for 72 hrs by GC/MS analysis; assay type: cell-based
[6] = biological target: T1, Olfactory receptor 51E2 (Homo sapiens); test: Agonist activity at PSGR/OR51E2 in human LNCaP cells assessed as induction of change in extracellular metabolites level by measuring guanine level at 100 nM incubated for 72 hrs by GC/MS analysis; assay type: cell-based
[7] = biological target: T1, Olfactory receptor 51E2 (Homo sapiens); test: Agonist activity at PSGR/OR51E2 in human LNCaP cells assessed as induction of change in extracellular metabolites level by measuring cysteine level at 100 nM incubated for 72 hrs by GC/MS analysis; assay type: cell-based
[8] = biological target: T1, Olfactory receptor 51E2 (Homo sapiens); test: Agonist activity at PSGR/OR51E2 in human LNCaP cells assessed as induction of change in extracellular metabolites level by measuring alpha-ketoglutaric acid level at 100 nM incubated for 72 hrs by GC/MS analysis; assay type: cell-based
[9] = biological target: T1, Olfactory receptor 51E2 (Homo sapiens); test: Agonist activity at PSGR/OR51E2 in human LNCaP cells assessed as induction of change in extracellular metabolites level by measuring 2-ketoleucine level at 100 nM incubated for 72 hrs by GC/MS analysis; assay type: cell-based
[10] = biological target: T1, Olfactory receptor 51E2 (Homo sapiens); test: Agonist activity at PSGR/OR51E2 in human LNCaP cells assessed as induction of change in extracellular metabolites level by measuring hydroquinone level at 100 nM incubated for 72 hrs by GC/MS analysis; assay type: cell-based
[11] = biological target: T1, Olfactory receptor 51E2 (Homo sapiens); test: Agonist activity at PSGR/OR51E2 in human LNCaP cells assessed as induction of change in extracellular metabolites level by measuring succinic acid level at 100 nM incubated for 72 hrs by GC/MS analysis; assay type: cell-based
[12] = biological target: T1, Olfactory receptor 51E2 (Homo sapiens); test: Agonist activity at PSGR/OR51E2 in human LNCaP cells assessed as induction of change in extracellular metabolites level by measuring glyceric acid level at 100 nM incubated for 72 hrs by GC/MS analysis; assay type: cell-based
[13] = biological target: T1, Olfactory receptor 51E2 (Homo sapiens); test: Agonist activity at PSGR/OR51E2 in human LNCaP cells assessed as induction of change in extracellular metabolites level by measuring n-acetylaspartic acid level at 100 nM incubated for 72 hrs by GC/MS analysis; assay type: cell-based
[14] = biological target: T1, Olfactory receptor 51E2 (Homo sapiens); test: Agonist activity at PSGR/OR51E2 in human LNCaP cells assessed as induction of change in extracellular metabolites level by measuring hydroxyprolines level at 100 nM incubated for 72 hrs by GC/MS analysis; assay type: cell-based
[15] = biological target: T1, Olfactory receptor 51E2 (Homo sapiens); test: Agonist activity at PSGR/OR51E2 in human LNCaP cells assessed as induction of change in extracellular metabolites level by measuring 2-deoxyglucose level at 100 nM incubated for 72 hrs by GC/MS analysis; assay type: cell-based
[16] = biological target: T1, Olfactory receptor 51E2 (Homo sapiens); test: Agonist activity at PSGR/OR51E2 in human LNCaP cells assessed as induction of change in extracellular metabolites level by measuring beta-alanine level at 100 nM incubated for 72 hrs by GC/MS analysis; assay type: cell-based
[17] = biological target: T1, Olfactory receptor 51E2 (Homo sapiens); test: Agonist activity at PSGR/OR51E2 in human LNCaP cells assessed as induction of change in extracellular metabolites level by measuring benzoic-acid level at 100 nM incubated for 72 hrs by GC/MS analysis; assay type: cell-based
[18] = biological target: T1, Olfactory receptor 51E2 (Homo sapiens); test: Agonist activity at PSGR/OR51E2 in human LNCaP cells assessed as induction of change in extracellular metabolites level by measuring urea level at 100 nM incubated for 72 hrs by GC/MS analysis; assay type: cell-based
[19] = biological target: T1, Olfactory receptor 51E2 (Homo sapiens); test: Agonist activity at PSGR/OR51E2 in human LNCaP cells assessed as induction of change in intracellular metabolites level by measuring tyramine level at 100 nM incubated for 72 hrs by GC/MS analysis; assay type: cell-based
[20] = biological target: T1, Olfactory receptor 51E2 (Homo sapiens); test: Agonist activity at PSGR/OR51E2 in human LNCaP cells assessed as induction of change in intracellular metabolites level by measuring adenosine/inosine level at 100 nM incubated for 72 hrs by GC/MS analysis; assay type: cell-based
[21] = biological target: T1, Olfactory receptor 51E2 (Homo sapiens); test: Agonist activity at PSGR/OR51E2 in human LNCaP cells assessed as induction of change in intracellular metabolites level by measuring guanine level at 100 nM incubated for 72 hrs by GC/MS analysis; assay type: cell-based
[22] = biological target: T1, Olfactory receptor 51E2 (Homo sapiens); test: Agonist activity at PSGR/OR51E2 in human LNCaP cells assessed as induction of change in intracellular metabolites level by measuring alanine level at 100 nM incubated for 72 hrs by GC/MS analysis; assay type: cell-based
[23] = biological target: T1, Olfactory receptor 51E2 (Homo sapiens); test: Agonist activity at PSGR/OR51E2 in human LNCaP cells assessed as induction of change in intracellular metabolites level by measuring pantothenic acid level at 100 nM incubated for 72 hrs by GC/MS analysis; assay type: cell-based
[24] = biological target: T1, Olfactory receptor 51E2 (Homo sapiens); test: Agonist activity at PSGR/OR51E2 in human LNCaP cells assessed as induction of change in intracellular metabolites level by measuring fumaric acid level at 100 nM incubated for 72 hrs by GC/MS analysis; assay type: cell-based
[25] = biological target: T1, Olfactory receptor 51E2 (Homo sapiens); test: Agonist activity at PSGR/OR51E2 in human LNCaP cells assessed as induction of change in intracellular metabolites level by measuring malic acid level at 100 nM incubated for 72 hrs by GC/MS analysis; assay type: cell-based
[26] = biological target: T1, Olfactory receptor 51E2 (Homo sapiens); test: Agonist activity at PSGR/OR51E2 in human LNCaP cells assessed as induction of change in intracellular metabolites level by measuring serine level at 100 nM incubated for 72 hrs by GC/MS analysis; assay type: cell-based
[27] = biological target: T1, Olfactory receptor 51E2 (Homo sapiens); test: Agonist activity at PSGR/OR51E2 in human LNCaP cells assessed as induction of change in intracellular metabolites level by measuring threonine level at 100 nM incubated for 72 hrs by GC/MS analysis; assay type: cell-based
[28] = biological target: T1, Olfactory receptor 51E2 (Homo sapiens); test: Agonist activity at PSGR/OR51E2 in human LNCaP cells assessed as induction of change in intracellular metabolites level by measuring fructose-6-phosphate level at 100 nM incubated for 72 hrs by GC/MS analysis; assay type: cell-based
[29] = biological target: T1, Olfactory receptor 51E2 (Homo sapiens); test: Agonist activity at PSGR/OR51E2 in human LNCaP cells assessed as induction of change in intracellular metabolites level by measuring beta-alanine level at 100 nM incubated for 72 hrs by GC/MS analysis; assay type: cell-based
[30] = biological target: T1, Olfactory receptor 51E2 (Homo sapiens); test: Agonist activity at PSGR/OR51E2 in human LNCaP cells assessed as induction of change in intracellular metabolites level by measuring lactic acid level at 100 nM incubated for 72 hrs by GC/MS analysis; assay type: cell-based
[31] = biological target: T1, Olfactory receptor 51E2 (Homo sapiens); test: Agonist activity at PSGR/OR51E2 in human LNCaP cells assessed as induction of change in intracellular metabolites level by measuring glucose-6-phosphate level at 100 nM incubated for 72 hrs by GC/MS analysis; assay type: cell-based
[32] = biological target: T1, Olfactory receptor 51E2 (Homo sapiens); test: Agonist activity at PSGR/OR51E2 in human LNCaP cells assessed as induction of change in intracellular metabolites level by measuring tyrosine level at 100 nM incubated for 72 hrs by GC/MS analysis; assay type: cell-based
[33] = biological target: T1, Olfactory receptor 51E2 (Homo sapiens); test: Agonist activity at PSGR/OR51E2 in human LNCaP cells assessed as induction of change in intracellular metabolites level by measuring urea level at 100 nM incubated for 72 hrs by GC/MS analysis; assay type: cell-based
[34] = biological target: T1, Olfactory receptor 51E2 (Homo sapiens); test: Agonist activity at PSGR/OR51E2 (unknown origin) expressed in human Hana3A cells co-transfected with CRE-Luc by luciferase reporter gene assay relative to control 1 mM propionic acid; assay type: functional, cell-based
[35] = biological target: T2, Olfactory receptor 51E2 (Homo sapiens, UniProt Q9H255); test: Agonist activity at PSGR/OR51E2 (unknown origin) expressed in human Hana3A cells co-transfected with CRE-Luc by luciferase reporter gene assay; assay type: functional, cell-based
T2 sequence (Q9H255 whole entry): T1 sequence (whole entry)

`C[C@]12CC[C@H]3[C@@H](CCC4=CC(=O)CC[C@@]43CO)[C@@H]1CCC2=O` was tested, and the Activity [1] was “Active”, the Activity [2] was “Active” and the Activity [3] was “Active”. The Activity [4] was “Active”, the Activity [5] was “Active” and the Activity [6] was “Active”. For the same compound, the Activity [7] was “Active”, the Activity [8] was “Active” and the Activity [9] was “Active”. The Activity [10] was “Active”, the Activity [11] was “Active” and the Activity [12] was “Active”. The Activity [13] was “Active”, the Activity [14] was “Active” and the Activity [15] was “Active”. For the same compound, the Activity [16] was “Active”, the Activity [17] was “Active” and the Activity [18] was “Active”. For the same compound, the Activity [19] was “Active”, the Activity [20] was “Active” and the Activity [21] was “Active”. For the same compound, the Activity [22] was “Active”, the Activity [23] was “Active” and the Activity [24] was “Active”. The Activity [25] was “Active”, the Activity [26] was “Active” and the Activity [27] was “Active”. The Activity [28] was “Active”, the Activity [29] was “Active” and the Activity [30] was “Active”. The Activity [31] was “Active”, the Activity [32] was “Active” and the Activity [33] was “Active”.

In the case of `Oc1ccc(-c2[o+]c3cc(O)cc(O)c3cc2O)cc1`, the Ratio [34] is reported as 0.621.

Compound `Nc1nc2[nH]c(O)nc2c(=O)[nH]1` has an EC50 [35] of 0.00044 nM.

H-RPPGFSPFR-OH was tested, and the Ratio [34] was 0.762.

Compound H-RPPGFSPFR-OH [BRADYKININ] has an EC50 [35] of 1.3 nM.

`COc1cc(CCC(=O)CC(=O)CCc2ccc(O)c(OC)c2)ccc1O` was tested, and the Ratio [34] was 0.284.

`O=C1CN=CN1` gave a Ratio [34] of 0.678.
